In ChEMBL document CHEMBL5376003, “Structure-Activity Relationship of FL118 Platform Position 7 Versus Position 9-Derived Compounds and Their Mechanism of Action and Antitumor Activity” (J Med Chem, 2023):
Activity calls are given as the source filed them. No cut-off for these calls is given here.

Legend:
Format in all cases: functional, cell-based
[1] = tested on: HCT-116; assay: Induction of apoptosis in human HCT-116 cells assessed as increase in intracellular ROS level incubated for 48 hrs by DCFH-DA staining based fluorescence microscopy
[2] = tested on: MCF7; assay: Growth inhibition of human MCF7 cells incubated for 48 hrs by MTT reagent based ELISA reader analysis; details: MCF7, 48 h
[3] = tested on: HeLa; assay: Growth inhibition of human HeLa cells incubated for 48 hrs by MTT reagent based ELISA reader analysis
[4] = tested on: HCT-116; assay: Induction of apoptosis in human HCT-116 cells assessed as downregulation of Survivin protein expression incubated for 48 hrs by Western blotting analysis
[5] = tested on: HCT-116; assay: Induction of apoptosis in human HCT-116 cells assessed as upregulation of DDX5 mRNA expression at 50 nM incubated for 24 hrs by RNA analysis
[6] = tested on: HCT-116; assay: Induction of apoptosis in human HCT-116 cells assessed as modulation of TOP3A mRNA expression at 10 to 500 nM incubated for 6 to 48 hrs by RNA analysis; details: dose 10-500 nM, time 6-48 hrs
[7] = tested on: HCT-116; assay: Induction of apoptosis in human HCT-116 cells assessed as modulation of TOP3B mRNA expression at 10 to 500 nM incubated for 6 to 48 hrs by RNA analysis; details: dose 10-500 nM, time 6-48 hrs
[8] = tested on: HCT-116; assay: Induction of apoptosis in human HCT-116 cells assessed as modulation of DDX6 mRNA expression at 10 to 500 nM incubated for 6 to 48 hrs by RNA analysis; details: dose 10-500 nM, time 6-48 hrs
[9] = tested on: HCT-116; assay: Induction of apoptosis in human HCT-116 cells assessed as modulation of DDX17 mRNA expression at 10 to 500 nM incubated for 6 to 48 hrs by RNA analysis; details: dose 10-500 nM, time 6-48 hrs
[10] = tested on: HCT-116; assay: Induction of apoptosis in human HCT-116 cells assessed as modulation of DDX19B mRNA expression at 10 to 500 nM incubated for 6 to 48 hrs by RNA analysis; details: dose 10-500 nM, time 6-48 hrs
[11] = tested on: HCT-116; assay: Induction of apoptosis in human HCT-116 cells assessed as upregulation of CDKN1A mRNA expression at 10 to 500 nM incubated for 6 to 48 hrs by RNA analysis; details: dose 10-500 nM, time 6-48 hrs
[12] = tested on: HCT-116; assay: Induction of apoptosis in human HCT-116 cells assessed as downregulation of BCL2 mRNA expression at 10 to 500 nM incubated for 6 to 48 hrs by RNA analysis; details: dose 10-500 nM, time 6-48 hrs
[13] = tested on: HCT-116; assay: Induction of apoptosis in human HCT-116 cells assessed as downregulation of BIRC5 mRNA expression at 10 to 500 nM incubated for 6 to 48 hrs by RNA analysis; details: dose 10-500 nM, time 6-48 hrs
[14] = tested on: HCT-116; assay: Induction of apoptosis in human HCT-116 cells assessed as downregulation of PRIM1 mRNA expression at 10 to 500 nM incubated for 6 to 48 hrs by RNA analysis; details: dose 10-500 nM, time 6-48 hrs
[15] = tested on: HCT-116; assay: Induction of apoptosis in human HCT-116 cells assessed as downregulation of RFC3 mRNA expression at 10 to 500 nM incubated for 6 to 48 hrs by RNA analysis; details: dose 10-500 nM, time 6-48 hrs
[16] = tested on: HCT-116; assay: Induction of apoptosis in human HCT-116 cells assessed as upregulation of ADCY6 mRNA expression at 10 to 500 nM incubated for 6 to 48 hrs by RNA analysis; details: dose 10-500 nM, time 6-48 hrs
[17] = tested on: HCT-116; assay: Induction of apoptosis in human HCT-116 cells assessed as upregulation of USP11 mRNA expression at 10 to 500 nM incubated for 6 to 48 hrs by RNA analysis; details: dose 10-500 nM, time 6-48 hrs
[18] = tested on: HCT-116; assay: Activation of innate immune response in human HCT-116 cells assessed as upregulation of IFIH1 gene expression at 10 to 500 nM incubated for 6 to 48 hrs by RNA analysis; details: dose 10-500 nM, time 6-48 hrs
[19] = tested on: HCT-116; assay: Activation of innate immune response in human HCT-116 cells assessed as upregulation of IRF5 gene expression at 10 to 500 nM incubated for 6 to 48 hrs by RNA analysis; details: dose 10-500 nM, time 6-48 hrs
[20] = tested on: HCT-116; assay: Induction of apoptosis in human HCT-116 cells assessed as downregulation of PPP2CA gene expression at 10 to 500 nM incubated for 6 to 48 hrs by RNA analysis; details: dose 10-500 nM, time 6-48 hrs
[21] = tested on: HCT-116; assay: Induction of apoptosis in human HCT-116 cells assessed as downregulation of AAAS gene expression at 10 to 500 nM incubated for 6 to 48 hrs by RNA analysis; details: dose 10-500 nM, time 6-48 hrs
[22] = tested on: HCT-116; assay: Induction of apoptosis in human HCT-116 cells assessed as downregulation of NUP133 gene expression at 10 to 500 nM incubated for 6 to 48 hrs by RNA analysis; details: dose 10-500 nM, time 6-48 hrs
[23] = tested on: HCT-116; assay: Induction of apoptosis in human HCT-116 cells assessed as downregulation of NUP43 gene expression at 10 to 500 nM incubated for 6 to 48 hrs by RNA analysis; details: dose 10-500 nM, time 6-48 hrs
[24] = tested on: HCT-116; assay: Induction of apoptosis in human HCT-116 cells assessed as downregulation of SEH1L gene expression at 10 to 500 nM incubated for 6 to 48 hrs by RNA analysis; details: dose 10-500 nM, time 6-48 hrs
[25] = tested on: HCT-116; assay: Induction of apoptosis in human HCT-116 cells assessed as downregulation of SLC25A13 gene expression at 10 to 500 nM incubated for 6 to 48 hrs by RNA analysis; details: dose 10-500 nM, time 6-48 hrs
[26] = tested on: HCT-116; assay: Induction of apoptosis in human HCT-116 cells assessed as downregulation of TPI1 gene expression at 10 to 500 nM incubated for 6 to 48 hrs by RNA analysis; details: dose 10-500 nM, time 6-48 hrs
[27] = tested on: HCT-116; assay: Induction of apoptosis in human HCT-116 cells assessed as downregulation of ADSL gene expression at 10 to 500 nM incubated for 6 to 48 hrs by RNA analysis; details: dose 10-500 nM, time 6-48 hrs
[28] = tested on: HCT-116; assay: Induction of apoptosis in human HCT-116 cells assessed as downregulation of AK2 gene expression at 10 to 500 nM incubated for 6 to 48 hrs by RNA analysis; details: dose 10-500 nM, time 6-48 hrs
[29] = tested on: HCT-116; assay: Induction of apoptosis in human HCT-116 cells assessed as downregulation of AMPD3 gene expression at 10 to 500 nM incubated for 6 to 48 hrs by RNA analysis; details: dose 10-500 nM, time 6-48 hrs
[30] = tested on: HCT-116; assay: Induction of apoptosis in human HCT-116 cells assessed as downregulation of DTYMK gene expression at 10 to 500 nM incubated for 6 to 48 hrs by RNA analysis; details: dose 10-500 nM, time 6-48 hrs
[31] = tested on: HCT-116; assay: Induction of apoptosis in human HCT-116 cells assessed as downregulation of NT5C gene expression at 10 to 500 nM incubated for 6 to 48 hrs by RNA analysis; details: dose 10-500 nM, time 6-48 hrs
[32] = tested on: HCT-116; assay: Induction of apoptosis in human HCT-116 cells assessed as downregulation of NT5C2 gene expression at 10 to 500 nM incubated for 6 to 48 hrs by RNA analysis; details: dose 10-500 nM, time 6-48 hrs
[33] = tested on: HCT-116; assay: Induction of apoptosis in human HCT-116 cells assessed as downregulation of PRKACB gene expression at 10 to 500 nM incubated for 6 to 48 hrs by RNA analysis; details: dose 10-500 nM, time 6-48 hrs
[34] = tested on: HCT-116; assay: Induction of apoptosis in human HCT-116 cells assessed as downregulation of PRKAR2B gene expression at 10 to 500 nM incubated for 6 to 48 hrs by RNA analysis; details: dose 10-500 nM, time 6-48 hrs

Row | Structure (SMILES) | Activity [1] | IC50 [2] | IC50 [3] | Activity [5] | Activity [6] | Activity [7] | Activity [8] | Activity [9] | Activity [10] | Activity [11] | Activity [12] | Activity [13] | Activity [14] | Activity [15] | Activity [17] | Activity [18] | Activity [19] | Activity [20] | Activity [21] | Activity [22] | also measured
1 | CC[C@@]1(O)C(=O)OCc2c1cc1n(c2=O)Cc2c-1nc1cc3c(cc1c2-c1ccc(OC)cc1)OCO3 | Dose-Dependent Effect | 0.0458 µM | 0.0483 µM | inactive | Active | Active | Active | Active | Active | Active | Active | Active | Active | Active | Active | Active | Active | Active | Active | Active | Activity [4]: Active; Activity [16]: Active; Activity [23]: Active; Activity [24]: Active; Activity [25]: Active; Activity [26]: Active; Activity [27]: Active; Activity [28]: Active; Activity [29]: Active; Activity [30]: Active; Activity [31]: Active; Activity [32]: Active; Activity [33]: Active; Activity [34]: Active
2 | CC[C@@]1(O)C(=O)OCc2c1cc1n(c2=O)Cc2cc3cc4c(cc3nc2-1)OCO4 | Dose-Dependent Effect | 0.0322 µM | 0.0324 µM | inactive | Active | Active | Active | Active | Active | Active | Active | Active | Active | Active | Active | Active | Active | Active | Active | Active | Activity [16]: Active; Activity [23]: Active; Activity [24]: Active; Activity [25]: Active; Activity [26]: Active; Activity [27]: Active; Activity [28]: Active; Activity [29]: Active; Activity [30]: Active; Activity [31]: Active; Activity [32]: Active; Activity [33]: Active; Activity [34]: Active
3 | CC[C@@]1(O)C(=O)OCc2c1cc1n(c2=O)Cc2c-1nc1cc3c(cc1c2-c1cc(OC)cc(OC)c1)OCO3 | Dose-Dependent Effect | < 0.0064 µM | < 0.0064 µM | inactive | Active | Active | Active | Active | Active | Active | Active | Active | Active | Active | Active | Active | Active | Active | Active | Active | Activity [4]: Active; Activity [23]: Active; Activity [24]: Active; Activity [25]: Active; Activity [26]: Active; Activity [27]: Active; Activity [28]: Active; Activity [29]: Active; Activity [30]: Active; Activity [31]: Active; Activity [32]: Active; Activity [34]: Active
